# Test results: US10526337B2, “Heteroaryl derivative or pharmaceutically acceptable salt thereof, preparation method therefor, and pharmaceutical composition for preventing or treating diseases associated with PI3 kinases, containing same as active ingredient” (KOREA RESEARCH INSTITUTE OF CHEMICAL TECHNOLOGY, priority 2015, dated 2020)
# Experiments:
# PI3 Kinase (p120γ) (h) = biological target: T1, PI3 Kinase (p120γ) (h) (Homo sapiens, UniProt P48736); test: Inhibition of phosphatidylinositol 3-kinase gamma (PI3K γ), pAkt Western blotting in C5a-stimulated RAW264.7 macrophages; assay type: cell-based, mouse; conditions: ATP=10 uM, sample concentration=100 nM
# T1 construct: endogenous in cells; host or cells: RAW264.7
# T1 sequence (P48736 whole entry): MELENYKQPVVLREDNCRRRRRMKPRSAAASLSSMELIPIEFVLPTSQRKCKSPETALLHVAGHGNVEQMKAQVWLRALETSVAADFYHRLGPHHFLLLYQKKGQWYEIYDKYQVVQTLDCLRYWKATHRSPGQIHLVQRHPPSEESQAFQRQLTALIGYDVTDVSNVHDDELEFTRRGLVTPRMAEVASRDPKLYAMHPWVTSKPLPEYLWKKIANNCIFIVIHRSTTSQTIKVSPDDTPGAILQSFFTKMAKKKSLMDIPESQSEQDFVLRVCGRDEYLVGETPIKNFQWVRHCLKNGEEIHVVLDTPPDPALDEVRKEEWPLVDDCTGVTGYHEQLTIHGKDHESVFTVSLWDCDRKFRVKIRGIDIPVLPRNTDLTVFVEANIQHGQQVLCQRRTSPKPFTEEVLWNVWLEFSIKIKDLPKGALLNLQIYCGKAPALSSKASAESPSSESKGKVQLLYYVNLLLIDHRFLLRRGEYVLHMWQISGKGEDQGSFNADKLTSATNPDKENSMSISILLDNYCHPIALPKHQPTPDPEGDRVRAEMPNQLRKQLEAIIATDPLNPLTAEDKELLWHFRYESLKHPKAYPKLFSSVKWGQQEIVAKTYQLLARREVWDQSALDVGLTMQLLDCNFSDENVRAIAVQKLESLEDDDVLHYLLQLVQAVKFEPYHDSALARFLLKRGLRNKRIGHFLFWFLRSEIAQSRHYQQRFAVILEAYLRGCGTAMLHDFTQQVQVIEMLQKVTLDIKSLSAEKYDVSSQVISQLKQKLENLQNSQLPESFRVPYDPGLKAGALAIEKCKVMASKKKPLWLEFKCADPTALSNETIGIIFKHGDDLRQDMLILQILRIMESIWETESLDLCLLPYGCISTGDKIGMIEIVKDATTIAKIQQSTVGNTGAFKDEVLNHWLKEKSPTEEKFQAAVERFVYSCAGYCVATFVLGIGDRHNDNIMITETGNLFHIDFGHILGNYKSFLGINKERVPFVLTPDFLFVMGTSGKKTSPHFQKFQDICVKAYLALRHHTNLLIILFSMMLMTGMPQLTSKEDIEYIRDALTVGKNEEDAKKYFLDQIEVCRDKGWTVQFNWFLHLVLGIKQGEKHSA
# Protocol: (§1) The stimulated cells were transferred in a 1.5 mL tube, followed by centrifugation at 3000 rpm for 1 minute. 100 μL of RIPA buffer (radioimmunoprecipitation assay buffer, 50 mM Tris-HCl, 5 mM EDTA, 150 mM NaCl, 1% NP-40, 1 mM PMSF, pH 8.0; ELPIS, Korea) was added thereto, which was stored in a 4° C. refrigerator for 12 hours. Centrifugation was performed at 4° C. at 14,000 rpm for 20 minutes. The supernatant was transferred into a new 1.5 mL tube. Protein was quantified by BCA (bicinchoninic acid) method and samples were prepared. The composition of the sample was as follows: sample buffer (ELPIS, EBA-1052) 5×, protein 10 μg, and 1× sample buffer to make the total volume 20 μL. The sample was heated at 100° C. for 5 minutes. The evaporated water vapor was condensed in a refrigerator. The liquid stained on the wall was fallen down by centrifugation for a few seconds. The sample proceeded to 10% SDS (Sodium Dodecyl Sulfate) acrylamide gel for separation. The separated protein was transferred onto PVDF (poly-vinyl difluoride) membrane, followed by reaction with pAkt (phospho protein kinase B) antibody (Ser473 or Thr308; Cell signaling, 9271s or 13038s) for 12 hours at 4° C. The membrane was washed with TBST (Tris-Buffered Saline with Tween 20, 10 mM Tris-HCl, pH 7.5, 150 mM NaCl, 0.1% Tween-20) three times for 5 minutes each, to which the secondary antibody (rabbit antibody, Santacruz, sc-2004) was added, followed by reaction at room temperature for 2 hours. The membrane was washed with TBST three times for 10 minutes each, to which ECL (enhanced chemiluminescence, Thermo, NCI34095KR) was sprayed. Bands were investigated by using LAS-3000.
# The inhibition of phosphatidylinositol 3 kinase gamma (PI3K γ) by those compounds prepared in Examples 1˜98 was investigated by the following experiment. The inhibition activity of each compound was measured in the following conditions: ATP=10 uM, and sample concentration=100 nM.
# (§2) Macrophages (RAW264.7) cultured in DMEM (Dulbecco's Modified Eagle Medium, Hyclon, SH30243.01) supplemented with 10% fetal bovine serum (Hyclon, USA) were distributed in a 12-well plate at the density of 1,000,000 cells/well. The cells were stabilized in a 37° C. CO2 for 24 hours and then treated with each compound for 1 and half hours. The cells were treated with 10 ng/mL of C5a (complement component 5a, 10 μg/mL; R&D, 2150-C5) to increase the intracellular activity of PI3K gamma. 5 minutes later, the medium was discarded and the cells were washed with cold PBS (phosphate buffered saline, Gibco, 14190-250). PBS was then eliminated completely by using a pipette. Western blotting was performed according to the same manner as described in step 2 of Experimental Example 1 to evaluate the intracellular PI3K gamma activity.
# [1] = biological target: T2, PI3 Kinase (p110δ/p85α) (h) (Homo sapiens, UniProt O00329); test: Inhibition of phosphatidylinositol 3-kinase delta (PI3K δ), pAkt Western blotting in IgM-stimulated Raji cells; assay type: cell-based; conditions: ATP=10 uM, sample concentration=100 nM
# T2 construct: endogenous in cells; host or cells: Raji
# T2 sequence (O00329 whole entry): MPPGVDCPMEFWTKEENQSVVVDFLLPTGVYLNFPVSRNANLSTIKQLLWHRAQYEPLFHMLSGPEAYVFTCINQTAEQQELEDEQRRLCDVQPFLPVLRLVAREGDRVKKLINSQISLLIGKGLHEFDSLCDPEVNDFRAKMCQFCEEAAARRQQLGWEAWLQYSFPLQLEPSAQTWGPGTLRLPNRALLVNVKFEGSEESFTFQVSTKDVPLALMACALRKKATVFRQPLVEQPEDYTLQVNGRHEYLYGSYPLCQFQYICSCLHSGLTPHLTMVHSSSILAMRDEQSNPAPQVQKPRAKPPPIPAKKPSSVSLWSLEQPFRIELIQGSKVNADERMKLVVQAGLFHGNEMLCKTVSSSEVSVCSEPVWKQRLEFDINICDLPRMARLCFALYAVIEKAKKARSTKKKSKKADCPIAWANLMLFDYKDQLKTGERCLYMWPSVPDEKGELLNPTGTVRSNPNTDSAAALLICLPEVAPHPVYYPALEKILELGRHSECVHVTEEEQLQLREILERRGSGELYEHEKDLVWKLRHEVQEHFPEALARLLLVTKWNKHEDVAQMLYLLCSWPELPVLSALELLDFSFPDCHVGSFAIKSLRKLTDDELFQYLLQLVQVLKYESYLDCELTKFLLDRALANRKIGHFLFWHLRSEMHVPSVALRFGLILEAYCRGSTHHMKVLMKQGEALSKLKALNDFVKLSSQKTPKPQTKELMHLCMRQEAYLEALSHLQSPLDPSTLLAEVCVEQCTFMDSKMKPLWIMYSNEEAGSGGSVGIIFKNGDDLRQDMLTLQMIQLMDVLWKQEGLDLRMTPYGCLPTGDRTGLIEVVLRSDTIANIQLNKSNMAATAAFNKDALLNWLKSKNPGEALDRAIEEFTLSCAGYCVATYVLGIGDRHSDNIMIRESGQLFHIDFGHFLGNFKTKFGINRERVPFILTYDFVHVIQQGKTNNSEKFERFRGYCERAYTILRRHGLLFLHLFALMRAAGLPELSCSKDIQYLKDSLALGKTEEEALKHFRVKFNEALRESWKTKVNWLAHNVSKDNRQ
# T2 sequence (P27986 whole entry partner): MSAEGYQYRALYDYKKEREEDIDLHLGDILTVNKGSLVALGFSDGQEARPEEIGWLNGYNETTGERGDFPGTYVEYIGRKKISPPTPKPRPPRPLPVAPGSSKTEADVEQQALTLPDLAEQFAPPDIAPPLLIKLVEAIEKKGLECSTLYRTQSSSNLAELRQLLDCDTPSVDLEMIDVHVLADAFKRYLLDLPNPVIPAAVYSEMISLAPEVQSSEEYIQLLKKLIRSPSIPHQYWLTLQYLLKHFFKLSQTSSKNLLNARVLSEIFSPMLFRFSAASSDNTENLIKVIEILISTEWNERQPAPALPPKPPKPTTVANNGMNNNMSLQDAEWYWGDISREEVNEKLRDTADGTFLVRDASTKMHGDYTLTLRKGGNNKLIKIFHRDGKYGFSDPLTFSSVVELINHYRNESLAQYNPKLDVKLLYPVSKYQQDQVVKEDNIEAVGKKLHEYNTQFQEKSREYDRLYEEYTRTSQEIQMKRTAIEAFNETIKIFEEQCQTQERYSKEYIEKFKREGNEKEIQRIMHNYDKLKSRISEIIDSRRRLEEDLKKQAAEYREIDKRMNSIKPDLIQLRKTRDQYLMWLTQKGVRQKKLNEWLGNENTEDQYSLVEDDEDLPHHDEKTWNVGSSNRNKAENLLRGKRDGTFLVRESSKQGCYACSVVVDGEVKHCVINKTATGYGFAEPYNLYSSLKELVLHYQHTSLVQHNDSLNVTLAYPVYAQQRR
# Protocol: as §1
# The inhibition of phosphatidylinositol 3 kinase delta (PI3K δ) by those compounds prepared in Examples 1˜98 was investigated by the following experiment. The inhibition activity of each compound was measured in the following conditions: ATP=10 uM, and sample concentration=100 nM.
# as §2, with “Raji cells” for “Macrophages (RAW264.7)”, “RPMI1640 (Hyclone, SH30027.02)” for “DMEM (Dulbecco's Modified Eagle Medium, Hyclon, SH30243.01)”, “0.25 μg/mL” for “10 ng/mL”, “IgM (immunoglobulin M, Southern Biotech, USA)” for “C5a (complement component 5a, 10 μg/mL; R&D, 2150-C5)”, “delta. 30” for “gamma. 5”, “delta” for “gamma”
IC50 (PI3 Kinase (p120γ) (h)) [nM],IC50 [1] [nM],Compound
10 to 500,10 to 500,"CC[C@H](Nc1nc(N)nc2c1C(=O)N(C)CN2)c1nc2cccc(F)c2c(=O)n1-c1ccccc1 [Example 54, (S)-7-amino-5-((1-(5-fluoro-4-oxo-3-phenyl-3,4-dihydroquinazoline-2-yl)propyl)amino)-3-methyl-2,3-dihydropyrimido[4,5-d]pyrimidine-4(1H)-one]"
10 to 500,10 to 500,"CN1CNc2nc(N)nc(N3CCC[C@H]3c3nc4cccc(Cl)c4c(=O)n3-c3ccccc3)c2C1=O [Example 55, (S)-7-amino-5-(2-(5-chloro-4-oxo-3-phenyl-3,4-dihydroquinazoline-2-yl)pyrrolidine-1-yl)-3-methyl-2,3-dihydropyrimido[4,5-d]pyrimidine-4(1H)-one]"
> 500,> 500,"CN1CNc2nc(N)nc(N3CCC[C@H]3c3nc4cccc(Cl)c4c(=O)n3-c3cccnc3)c2C1=O [Example 56, (S)-7-amino-5-(2-(5-chloro-4-oxo-3-(pyridine-3-yl)-3,4-dihydroquinazoline-2-yl)pyrrolidine-1-yl)-3-methyl-2,3-dihydropyrimido[4,5-d]pyrimidine-4(1H)-one]"
10 to 500,> 500,"CN1CNc2nc(N)nc(N3CCC[C@H]3c3nc4cccc(Cl)c4c(=O)n3-c3cccc(F)c3)c2C1=O [Example 57, (S)-7-amino-5-(2-(5-chloro-3-(3-fluorophenyl)-4-oxo-3,4-dihydroquinazoline-2-yl)pyrrolidine-1-yl)-3-methyl-2,3-dihydropyrimido[4,5-d]pyrimidine-4(1H)-one]"
> 500,> 500,"Cc1cccc(-n2c([C@@H]3CCCN3c3nc(N)nc4c3C(=O)N(C)CN4)nc3cccc(Cl)c3c2=O)c1 [Example 58, (S)-7-amino-5-(2-(5-chloro-4-oxo-3-(m-tolyl)-3,4-dihydroquinazoline-2-yl)pyrrolidine-1-yl)-3-methyl-2,3-dihydropyrimido[4,5-d]pyrimidine-4(1H)-one]"
> 500,> 500,"CN1CNc2nc(N)nc(N3CCC[C@H]3c3cc4cccc(Cl)c4c(=O)n3-c3ccccc3)c2C1=O [Example 59, (S)-7-amino-5-(2-(8-chloro-1-oxo-2-phenyl-1,2-dihydroisoquinoline-3-yl)pyrrolidine-1-yl)-3-methyl-2,3-dihydropyrimido[4,5-d]pyrimidine-4(1H)-one]"
> 500,> 500,"CC(C)N1CNc2ncnc(N[C@@H](C)c3cc4cccc(Cl)c4c(=O)n3-c3ccccc3)c2C1=O [Example 64, (S)-5-(1-(8-chloro-1-oxo-2-phenyl-1,2-dihydroisoquinoline-3-yl)ethylamino)-3-isopropyl-2,3-dihydropyrimido[4,5-d]pyrimidine-4(1H)-one]"
> 500,> 500,"CC[C@H](Nc1ncnc2c1C(=O)N(C(C)C)CN2)c1nc2cccc(F)c2c(=O)n1-c1ccccc1 [Example 65, (S)-5-(1-(5-fluoro-4-oxo-3-phenyl-3,4-dihydroquinazoline-2-yl)propylamino)-3-isopropyl-2,3-dihydropyrimido[4,5-d]pyrimidine-4(1H)-one]"
> 500,10 to 500,"C[C@H](Nc1ncnc2[nH]cnc(=O)c12)c1nc2cccc(Cl)c2c(=O)n1-c1ccccc1 [Example 66, (S)-5-((1-(5-chloro-4-oxo-3-phenyl-3,4-dihydroquinazoline-2-yl)ethyl)amino)pyrimido[4,5-d]pyrimidine-4(1H)-one]"
> 500,> 500,"C[C@H](Nc1ncnc2[nH]cnc(=O)c12)c1nc2cccc(Cl)c2c(=O)n1-c1cccnc1 [Example 67, (S)-5-((1-(5-chloro-4-oxo-3-(pyridine-3-yl)-3,4-dihydroquinazoline-2-yl)ethyl)amino)pyrimido[4,5-d]pyrimidine-4(1H)-one]"
> 500,> 500,"C[C@H](Nc1ncnc2[nH]cnc(=O)c12)c1nc2cccc(Cl)c2c(=O)n1-c1cccc(F)c1 [Example 68, (S)-5-((1-(5-chloro-3-(3-fluorophenyl)-4-oxo-3,4-dihydroquinazoline-2-yl)ethyl)amino)pyrimido[4,5-d]pyrimidine-4(1H)-one]"
> 500,10 to 500,"Cc1cccc(-n2c([C@H](C)Nc3ncnc4[nH]cnc(=O)c34)nc3cccc(Cl)c3c2=O)c1 [Example 69, (S)-5-((1-(5-chloro-4-oxo-3-(m-tolyl)-3,4-dihydroquinazoline-2-yl)ethyl)amino)pyrimido[4,5-d]pyrimidine-4(1H)-one]"
10 to 500,10 to 500,"C[C@H](Nc1ncnc2[nH]cnc(=O)c12)c1cc2cccc(Cl)c2c(=O)n1-c1ccccc1 [Example 70, (S)-5-((1-(8-chloro-1-oxo-2-phenyl-1,2-dihydroisoquinoline-3-yl)ethyl)amino)pyrimido[4,5-d]pyrimidine-4(1H)-one]"
> 500,10 to 500,"C[C@H](Nc1ncnc2[nH]cnc(=O)c12)c1nn2ccc(Cl)c2c(=O)n1-c1ccccc1 [Example 71, (S)-5-((1-(5-chloro-4-oxo-3-phenyl-3,4-dihydropyrrolo[2,1-f][1,2,4]triazine-2-yl)ethyl)amino)pyrimido[4,5-d]pyrimidine-4(1H)-one]"
> 500,> 500,"C[C@H](Nc1ncnc2[nH]cnc(=O)c12)c1cc2ccccc2nc1-c1ccccc1 [Example 72, (S)-5-((1-(2-phenylquinoline-3-yl)ethyl)amino)pyrimido[4,5-d]pyrimidine-4(1H)-one]"
> 500,> 500,"CC[C@H](Nc1ncnc2[nH]cnc(=O)c12)c1nc2cccc(F)c2c(=O)n1-c1ccccc1 [Example 73, (S)-5-((1-(5-fluoro-4-oxo-3-phenyl-3,4-dihydroquinazoline-2-yl)propyl)amino)pyrimido[4,5-d]pyrimidine-4(1H)-one]"
> 500,> 500,"O=c1nc[nH]c2ncnc(N3CCC[C@H]3c3nc4cccc(Cl)c4c(=O)n3-c3ccccc3)c12 [Example 74, (S)-5-(2-(5-chloro-4-oxo-3-phenyl-3,4-dihydroquinazoline-2-yl)pyrrolidine-1-yl)pyrimido[4,5-d]pyrimidine-4(1H)-one]"
> 500,10 to 500,"O=c1nc[nH]c2ncnc(N3CCC[C@H]3c3cc4cccc(Cl)c4c(=O)n3-c3cccnc3)c12 [Example 75, (S)-5-(2-(8-chloro-1-oxo-2-(pyridine-3-yl)-1,2-dihydroisoquinoline-3-yl)pyrrolidine-1-yl)pyrimido[4,5-d]pyrimidine-4(1H)-one]"
> 500,> 500,"O=c1nc[nH]c2ncnc(N3CCC[C@H]3c3nc4cccc(Cl)c4c(=O)n3-c3cccnc3)c12 [Example 76, (S)-5-(2-(5-chloro-4-oxo-3-(pyridine-3-yl)-3,4-dihydroquinazoline-2-yl)pyrrolidine-1-yl)pyrimido[4,5-d]pyrimidine-4(1H)-one]"
> 500,> 500,"O=c1nc[nH]c2ncnc(N3CCC[C@H]3c3nc4cccc(Cl)c4c(=O)n3-c3cccc(F)c3)c12 [Example 77, (S)-5-(2-(5-chloro-3-(3-fluorophenyl)-4-oxo-3,4-dihydroquinazoline-2-yl)pyrrolidine-1-yl)pyrimido[4,5-d]pyrimidine-4(1H)-one]"
